Data reported in patent US10633382B2, “Imidazopyrazinones, pyrazolopyrimidinones and pyrazolopyridinones as PDE1 inhibitors” (H. Lundbeck A/S, priority 2016, dated 2020).

Legend:
Assay type in all cases: biochemical
[1] = target: PDE9 (Homo sapiens, UniProt O76083); assay: PDE9 inhibition assay; settings: for inhibition at 10 µM / PDE9 Inhibition at 10 μM (%): 10 μM of inhibitor
Description: A PDE9 assay may for example, be performed as follows: The assay is performed in 60 μL samples containing a fixed amount of the relevant PDE enzyme (sufficient to convert 20-25% of the cyclic nucleotide substrate), a buffer (50 mM HEPES pH 7.6; 10 mM MgCl2; 0.02% Tween20), 0.1 mg/ml BSA, 225 pCi of ^3H-labelled cyclic nucleotide substrate, tritium labeled cAMP to a final concentration of 5 nM and varying amounts of inhibitors. Reactions are initiated by addition of the cyclic nucleotide substrate, and reactions are allowed to proceed for one hr at room temperature before being terminated through mixing with 15 μL 8 mg/mL yttrium silicate SPA beads (Amersham). The beads are allowed to settle for one hr in the dark before the plates are counted in a Wallac 1450 Microbeta counter. The measured signal can be converted to activity relative to an uninhibited control (100%) and IC50 values can be calculated using the Xlfit extension to EXCEL.
In the context of the present invention the assay was performed in 60 μL assay buffer (50 mM HEPES pH 7.6; 10 mM MgCl2; 0.02% Tween20) containing enough PDE9 to convert 20-25% of 10 nM ^3H-cAMP, and […] 10 μM of inhibitor. Following 1 hr incubation the reactions were terminated by addition of 15 μL 8 mg/mL yttrium silicate SPA beads (Amersham). The beads were allowed to settle for one hr in the dark before the plates were counted in a Wallac 1450 Microbeta counter.

[2] = target: PDE1B (Homo sapiens, UniProt Q01064); assay: PDE1 inhibition assay (PDE1B); settings: 15 nM tritium labelled cAMP, SPA
Sequence of PDE1B (Q01064 whole entry): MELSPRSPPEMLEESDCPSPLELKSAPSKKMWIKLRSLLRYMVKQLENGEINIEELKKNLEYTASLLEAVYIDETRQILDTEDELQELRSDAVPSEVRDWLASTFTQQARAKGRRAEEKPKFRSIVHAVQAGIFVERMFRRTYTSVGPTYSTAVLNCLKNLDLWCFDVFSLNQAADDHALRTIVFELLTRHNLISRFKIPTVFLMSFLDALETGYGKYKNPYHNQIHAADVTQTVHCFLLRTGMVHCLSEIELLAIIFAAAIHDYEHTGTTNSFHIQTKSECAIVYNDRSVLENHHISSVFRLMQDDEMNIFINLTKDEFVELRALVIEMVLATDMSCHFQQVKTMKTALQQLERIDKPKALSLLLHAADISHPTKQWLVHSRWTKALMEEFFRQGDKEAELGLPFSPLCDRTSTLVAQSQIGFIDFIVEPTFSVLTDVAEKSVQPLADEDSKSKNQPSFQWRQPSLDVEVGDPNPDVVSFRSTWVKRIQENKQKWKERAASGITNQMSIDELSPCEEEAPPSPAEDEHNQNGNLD
Description: (§1) PDE1A, PDE1B and PDE1C assays were performed as follows: the assays were performed in 60 μL samples containing a fixed amount of the PDE1 enzyme (sufficient to convert 20-25% of the cyclic nucleotide substrate), a buffer (50 mM HEPES (4-(2-hydroxyethyl)-1-piperazineethanesulfonic acid) pH 7.6; 10 mM MgCl2; 0.02% Tween20), 0.1 mg/ml BSA (bovine serum albumin), 15 nM tritium labelled cAMP and varying amounts of inhibitors. Reactions were initiated by addition of the cyclic nucleotide substrate, and reactions were allowed to proceed for 1 hr at room temperature before being terminated through mixing with 20 μL (0.2 mg) yttrium silicate SPA beads (PerkinElmer). The beads were allowed to settle for 1 hour in the dark before the plates were counted in a Wallac 1450 Microbeta counter. The measured signals were converted to activity relative to an uninhibited control (100%) and IC50 values were calculated using XlFit (model 205, IDBS).

[3] = target: PDE1A (Homo sapiens, UniProt P54750); assay: PDE1 inhibition assay (PDE1A); settings: 15 nM tritium labelled cAMP, SPA
Sequence of PDE1A (P54750 whole entry): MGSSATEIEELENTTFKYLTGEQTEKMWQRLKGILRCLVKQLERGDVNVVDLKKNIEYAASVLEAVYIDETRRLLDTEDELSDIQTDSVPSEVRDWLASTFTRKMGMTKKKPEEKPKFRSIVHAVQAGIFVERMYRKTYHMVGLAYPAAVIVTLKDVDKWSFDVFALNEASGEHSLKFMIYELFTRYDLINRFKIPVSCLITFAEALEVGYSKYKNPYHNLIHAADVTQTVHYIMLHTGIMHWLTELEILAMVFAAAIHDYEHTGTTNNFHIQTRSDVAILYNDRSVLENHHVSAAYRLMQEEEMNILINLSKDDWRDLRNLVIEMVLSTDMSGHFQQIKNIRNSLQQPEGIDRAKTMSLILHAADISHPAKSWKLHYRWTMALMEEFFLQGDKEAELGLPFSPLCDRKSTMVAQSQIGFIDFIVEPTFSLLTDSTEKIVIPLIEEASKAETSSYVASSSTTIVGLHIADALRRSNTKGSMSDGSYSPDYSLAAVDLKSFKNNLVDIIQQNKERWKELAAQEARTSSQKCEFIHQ
Description: as §1

[4] = target: PDE1C (Homo sapiens, UniProt Q14123); assay: PDE1 inhibition assay (PDE1C); settings: 15 nM tritium labelled cAMP, SPA
Sequence of PDE1C (Q14123 whole entry): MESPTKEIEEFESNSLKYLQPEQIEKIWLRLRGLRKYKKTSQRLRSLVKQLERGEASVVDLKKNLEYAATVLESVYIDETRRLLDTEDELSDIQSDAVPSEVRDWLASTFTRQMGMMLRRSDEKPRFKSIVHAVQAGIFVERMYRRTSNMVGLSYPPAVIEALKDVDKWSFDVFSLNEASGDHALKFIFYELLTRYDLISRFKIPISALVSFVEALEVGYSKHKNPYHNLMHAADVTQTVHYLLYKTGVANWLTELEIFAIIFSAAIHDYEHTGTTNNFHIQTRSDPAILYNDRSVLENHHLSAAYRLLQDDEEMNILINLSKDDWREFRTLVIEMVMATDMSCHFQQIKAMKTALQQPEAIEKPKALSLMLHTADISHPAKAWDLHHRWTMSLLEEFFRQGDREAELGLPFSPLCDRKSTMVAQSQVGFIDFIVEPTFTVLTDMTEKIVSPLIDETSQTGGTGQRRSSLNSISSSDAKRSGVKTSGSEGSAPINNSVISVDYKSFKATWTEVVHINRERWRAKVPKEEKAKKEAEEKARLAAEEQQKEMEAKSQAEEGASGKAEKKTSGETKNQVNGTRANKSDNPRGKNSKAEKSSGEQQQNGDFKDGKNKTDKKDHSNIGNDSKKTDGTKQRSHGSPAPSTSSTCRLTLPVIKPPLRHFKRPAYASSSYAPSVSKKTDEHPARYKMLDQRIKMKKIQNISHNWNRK
Description: as §1

Sequence of PDE9 (O76083 whole entry): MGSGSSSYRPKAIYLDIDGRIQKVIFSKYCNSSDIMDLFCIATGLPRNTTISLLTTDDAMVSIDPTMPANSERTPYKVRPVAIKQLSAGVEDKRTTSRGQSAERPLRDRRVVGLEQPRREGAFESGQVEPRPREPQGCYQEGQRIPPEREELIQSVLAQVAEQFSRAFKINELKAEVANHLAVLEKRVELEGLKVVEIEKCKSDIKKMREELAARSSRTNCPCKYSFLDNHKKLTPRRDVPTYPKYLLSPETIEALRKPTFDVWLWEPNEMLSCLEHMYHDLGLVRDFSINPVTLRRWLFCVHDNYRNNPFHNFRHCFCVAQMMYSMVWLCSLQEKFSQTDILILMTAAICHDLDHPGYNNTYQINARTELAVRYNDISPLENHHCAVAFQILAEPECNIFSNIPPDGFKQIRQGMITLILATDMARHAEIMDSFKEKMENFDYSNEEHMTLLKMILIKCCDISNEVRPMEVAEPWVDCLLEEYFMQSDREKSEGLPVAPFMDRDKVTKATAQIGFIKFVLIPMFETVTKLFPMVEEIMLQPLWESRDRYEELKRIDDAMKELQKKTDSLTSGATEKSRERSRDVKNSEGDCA

| SMILES | inhibition at 10 µM [1] [%] | IC50 [2] [nM] | IC50 [3] [nM] | IC50 [4] [nM] | IC50 ([1]; printed in the PDE9 inhibition column) [nM] | PDE9 Inhibition at 10 μM (%) [1] [%] |
| --- | --- | --- | --- | --- | --- | --- |
| Cc1cccc(-c2ccc(Cc3cn4c(C5CCOCC5)ncc4c(=O)n3C)cc2)n1 [Example 13, 7-methyl-6-[[4-(6-methyl-2-pyridyl)phenyl]methyl]-3-tetrahydropyran-4-yl-imidazo[1,5-a]pyrazin-8-one] | 18 | 14 | 81 | 80 |  |  |
| Cn1c(Cc2ccc(-c3cccc(F)n3)cc2)cn2c(C3CCOCC3)ncc2c1=O [Example 14, 6-[[4-(6-fluoro-2-pyridyl)phenyl]methyl]-7-methyl-3-tetrahydropyran-4-yl-imidazo[1,5-a]pyrazin-8-one] | 14 | 5.2 | 62 | 67 |  |  |
| COc1cccnc1-c1ccc(Cc2cn3c(C4CCOCC4)ncc3c(=O)n2C)cc1 [Example 17, 6-[[4-(3-methoxy-2-pyridyl)phenyl]methyl]-7-methyl-3-tetrahydropyran-4-yl-imidazo[1,5-a]pyrazin-8-one] | 2 | 21 | 87 | 161 |  |  |
| COc1ccc(Cn2c(Cc3ccc(-c4ccccn4)cc3)cn3c(C4CCOCC4)ncc3c2=O)cc1 [Example 9, 7-[(4-methoxyphenyl)methyl]-6-[[4-(2-pyridyl)phenyl]methyl]-3-tetrahydropyran-4-yl-imidazo[1,5-a]pyrazin-8-one] | 39 | 0.19 | 0.29 | 0.38 |  |  |
| Cn1cnc(-c2ccc(Cc3cn4c(C5CCOCC5)ncc4c(=O)n3C)cc2)c1 [Example 20, 7-methyl-6-(4-(1-methyl-1H-imidazol-4-yl)benzyl)-3-(tetrahydro-2H-pyran-4-yl)imidazo[1,5-a]pyrazin-8(7H)-one] | -6 | 17 | 75 | 157 |  |  |
| Cn1c(Cc2ccc(-c3ccncn3)cc2)cn2c(C3CCOCC3)ncc2c1=O [Example 26, 7-methyl-6-(4-(pyrimidin-4-yl)benzyl)-3-(tetrahydro-2H-pyran-4-yl)imidazo[1,5-a]pyrazin-8(7H)-one] | 14 | 16 | 68 | 149 |  |  |
| COc1ccc(Cn2c(CN3CCN(c4ccccc4)CC3)cn3c(C4CCOCC4)ncc3c2=O)cc1 [Example 8, 7-[(4-methoxyphenyl)methyl]-6-[(4-phenylpiperazin-1-yl)methyl]-3-tetrahydropyran-4-yl-imidazo[1,5-a]pyrazin-8-one] | 11 | 9.8 | 59 | 140 |  |  |
| Cn1c(Cc2ccc(-c3cccc(C(F)F)n3)cc2)cn2c(C3CCOCC3)ncc2c1=O [Example 15, 6-[[4-[6-(difluoromethyl)-2-pyridyl]phenyl]methyl]-7-methyl-3-tetrahydropyran-4-yl-imidazo[1,5-a]pyrazin-8-one] | 6 | 14 | 58 | 87 |  |  |
| O=c1[nH]c(Cc2ccc(-c3ccccn3)cc2)cn2c(C3CCOCC3)ncc12 [Example 10, 6-[[4-(2-pyridyl)phenyl]methyl]-3-tetrahydropyran-4-yl-7H-imidazo[1,5-a]pyrazin-8-one] |  | 6 | 17 | 22 | 180 |  |
| Cn1c(Cc2ccc(-c3cccc(F)n3)cc2)cc2c(cnn2C2CCOCC2)c1=O [Example 5, 6-[[4-(6-fluoro-2-pyridyl)phenyl]methyl]-5-methyl-1-tetrahydropyran-4-yl-pyrazolo[4,3-c]pyridin-4-one] | 3 | 20 | 120 | 190 |  |  |
| CC1OCCC1c1ncc2c(=O)n(C)c(Cc3ccc(-c4cccc(F)n4)cc3)cn12 (single isomer, unassigned; isomer 1) [Example 29, 6-(4-(6-fluoropyridin-2-yl)benzyl)-7-methyl-3-(2-methyltetrahydrofuran-3-yl)imidazo[1,5-a]pyrazin-8(7H)-one, Isomer 1] |  | 24 | 61 | 104 |  | 4 |
| CC1OCCC1c1ncc2c(=O)n(C)c(Cc3ccc(-c4cccc(F)n4)cc3)cn12 (single isomer, unassigned; isomer 3) [Example 31, 6-(4-(6-fluoropyridin-2-yl)benzyl)-7-methyl-3-(2-methyltetrahydrofuran-3-yl)imidazo[1,5-a]pyrazin-8(7H)-one, Isomer 3] |  | 4 | 18 | 45 |  | 10 |
| CCCc1ncc2c(=O)n(C)c(Cc3ccc(-c4cccc(F)n4)cc3)cn12 [Example 22, 6-(4-(6-fluoropyridin-2-yl)benzyl)-7-methyl-3-propylimidazo[1,5-a]pyrazin-8(7H)-one] | 2 | 40 | 168 | 310 |  |  |
| Cn1c(Cc2ccc(-c3ccccn3)cc2)nc2c(cnn2C2CCOCC2)c1=O [Example 2, 5-methyl-6-[[4-(2-pyridyl)phenyl]methyl]-1-tetrahydropyran-4-yl-pyrazolo[3,4-d]pyrimidin-4-one] | 5 | 92 | 390 | 530 |  |  |
| CCc1ncc2c(=O)n(C)c(Cc3ccc(-c4cccc(F)n4)cc3)cn12 [Example 23, 3-ethyl-6-(4-(6-fluoropyridin-2-yl)benzyl)-7-methylimidazo[1,5-a]pyrazin-8(7H)-one] | 17 | 56 | 176 | 578 |  |  |
| CC(C)c1ncc2c(=O)n(C)c(Cc3ccc(-c4cccc(F)n4)cc3)cn12 [Example 21, 6-[[4-(6-fluoro-2-pyridyl)phenyl]methyl]-3-isopropyl-7-methyl-imidazo[1,5-a]pyrazin-8-one] | 13 | 13 | 36 | 93 |  |  |
| Cn1c(Cc2ccc(-c3ccccc3)cc2)cn2c(C3CCOCC3)ncc2c1=O [Example 19, 7-methyl-6-[(4-phenylphenyl)methyl]-3-tetrahydropyran-4-yl-imidazo[1,5-a]pyrazin-8-one] | 7 | 7.3 | 28 | 61 |  |  |
| COc1cccc(-c2ccc(Cc3cn4c(C5CCOCC5)ncc4c(=O)n3C)cc2)n1 [Example 16, 6-[[4-(6-methoxy-2-pyridyl)phenyl]methyl]-7-methyl-3-tetrahydropyran-4-yl-imidazo[1,5-a]pyrazin-8-one] | 7 | 4.7 | 24 | 42 |  |  |
| Cn1c(Cc2ccc(-c3ccccn3)cc2)cn2c(C3CCOCC3)ncc2c1=O [Example 11, 7-methyl-6-[[4-(2-pyridyl)phenyl]methyl]-3-tetrahydropyran-4-yl-imidazo[1,5-a]pyrazin-8-one] | -10 | 3.5 | 30 | 120 |  |  |
| Cc1ccccc1-c1ccc(Cc2cn3c(C4CCOCC4)ncc3c(=O)n2C)cc1 [Example 18, 7-methyl-6-[[4-(o-tolyl)phenyl]methyl]-3-tetrahydropyran-4-yl-imidazo[1,5-a]pyrazin-8-one] | 9 | 23 | 117 | 238 |  |  |
| CC1OCCC1c1ncc2c(=O)n(C)c(Cc3ccc(-c4cccc(F)n4)cc3)cn12 (single isomer, unassigned; isomer 2) [Example 30, 6-(4-(6-fluoropyridin-2-yl)benzyl)-7-methyl-3-(2-methyltetrahydrofuran-3-yl)imidazo[1,5-a]pyrazin-8(7H)-one, Isomer 2] |  | 71 | 70 | 148 |  | −2 |
| Cn1c(Cc2ccc(-c3ccccn3)cc2)cc2c(cnn2C2CCOCC2)c1=O [Example 6, 5-methyl-6-[[4-(2-pyridyl)phenyl]methyl]-1-tetrahydropyran-4-yl-pyrazolo[4,3-c]pyridin-4-one] | 4 | 25 | 160 | 240 |  |  |
